Test results as given in paper PMC6100415, “Hepatic Metabolism of Sakuranetin and Its Modulating Effects on Cytochrome P450s and UDP-Glucuronosyltransferases” (Molecules : A Journal of Synthetic Chemistry and Natural …, 2018).
Read-outs that look alike come from different tables or passages of the source.

Assays:
Type in all cases: in vitro ADME
CYP3A4 = CYP3A4 (Homo sapiens, UniProt P08684); assay: CYP inhibition in human liver microsomes, testosterone 6β-hydroxylation (TSTHY); details: pH 7.4, probe testosterone (6β-hydroxylation, TSTHY)
Chain of CYP3A4 (P08684 whole entry): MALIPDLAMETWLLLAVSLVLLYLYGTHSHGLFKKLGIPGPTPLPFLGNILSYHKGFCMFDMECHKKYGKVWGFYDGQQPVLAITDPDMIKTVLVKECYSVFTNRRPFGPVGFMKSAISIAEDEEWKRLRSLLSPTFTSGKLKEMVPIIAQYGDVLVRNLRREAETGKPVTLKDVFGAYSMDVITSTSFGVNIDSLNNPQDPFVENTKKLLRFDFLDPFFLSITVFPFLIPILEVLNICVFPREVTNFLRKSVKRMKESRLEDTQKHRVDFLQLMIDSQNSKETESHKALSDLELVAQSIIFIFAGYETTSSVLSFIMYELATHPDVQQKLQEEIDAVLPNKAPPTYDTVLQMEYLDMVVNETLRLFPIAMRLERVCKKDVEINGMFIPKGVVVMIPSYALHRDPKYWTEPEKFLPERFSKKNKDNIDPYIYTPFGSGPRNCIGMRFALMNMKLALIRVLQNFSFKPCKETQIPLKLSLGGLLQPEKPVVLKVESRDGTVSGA
From the text: (§1) The DAD was set at 280 nm.

UGT2B7 = target: T1, UGT2B7 (Homo sapiens, UniProt P16662); assay: UGT inhibition in human liver microsomes, zidovudine 5′-glucuronidation (AZTG); details: pH 7.4, probe zidovudine (200 μM)
T1 construct: The typical incubation mixture contained human liver microsomes (0.5 mg/mL) along with SKN (10 μM); tissue BD Gentest; host or cells: human liver microsomes
T1 sequence (P16662 24-529): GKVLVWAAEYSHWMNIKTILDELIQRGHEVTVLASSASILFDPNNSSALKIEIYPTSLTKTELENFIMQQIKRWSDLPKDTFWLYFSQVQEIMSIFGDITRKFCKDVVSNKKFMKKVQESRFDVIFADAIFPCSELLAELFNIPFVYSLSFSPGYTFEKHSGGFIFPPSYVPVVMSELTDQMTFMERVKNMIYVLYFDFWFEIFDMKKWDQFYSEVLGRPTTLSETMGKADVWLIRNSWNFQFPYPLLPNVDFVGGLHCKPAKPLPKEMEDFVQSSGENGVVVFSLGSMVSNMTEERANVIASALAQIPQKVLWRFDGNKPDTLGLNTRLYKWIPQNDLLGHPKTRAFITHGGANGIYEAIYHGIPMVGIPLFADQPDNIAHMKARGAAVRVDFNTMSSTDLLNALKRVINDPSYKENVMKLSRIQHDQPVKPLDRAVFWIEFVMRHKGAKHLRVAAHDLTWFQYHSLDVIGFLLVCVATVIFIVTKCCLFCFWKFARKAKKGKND
Experimental: (§2) The formation of a glucuronide conjugate from an isozyme-specific substrate (200 μM, Table 5) was examined to determine UGT activity levels in human liver microsomes. The typical incubation mixture contained human liver microsomes (0.5 mg/mL) along with SKN (10 μM), and MgCl2 (10 mM) in 50 mM Tris-HCl buffer (pH 7.4). The metabolic reaction was initiated by adding UPDGA (2 mM) and stopped by adding an equal volume of ice-cold methanol. […] The conditions used for the operation and analysis of the HPLC-DAD and LC-ESI-MS are provided in the Supplementary Materials and Table S3.
(§3) The solvent flow rate was set at 0.2 mL/min, and the column temperature was set at 35 °C. The LTQ instrument was operated in negative ion electron spray mode at an ion spray voltage of −4.2 kV and a source temperature of 275 °C. The sheath gas flow rate was 35 arb, and the aux gas flow rate was 5 arb. The MS conditions used to detect glucuronides via selected ion monitoring scan mode are summarized in Supplementary Materials Table S3.

CYP2B6 = target: T2, CYP2B6 (Homo sapiens, UniProt P20813); assay: CYP inhibition in human liver microsomes, bupropion hydroxylation (BPHY); details: pH 7.4, probe bupropion (hydroxylation, BPHY)
T2 sequence (P20813 1-491): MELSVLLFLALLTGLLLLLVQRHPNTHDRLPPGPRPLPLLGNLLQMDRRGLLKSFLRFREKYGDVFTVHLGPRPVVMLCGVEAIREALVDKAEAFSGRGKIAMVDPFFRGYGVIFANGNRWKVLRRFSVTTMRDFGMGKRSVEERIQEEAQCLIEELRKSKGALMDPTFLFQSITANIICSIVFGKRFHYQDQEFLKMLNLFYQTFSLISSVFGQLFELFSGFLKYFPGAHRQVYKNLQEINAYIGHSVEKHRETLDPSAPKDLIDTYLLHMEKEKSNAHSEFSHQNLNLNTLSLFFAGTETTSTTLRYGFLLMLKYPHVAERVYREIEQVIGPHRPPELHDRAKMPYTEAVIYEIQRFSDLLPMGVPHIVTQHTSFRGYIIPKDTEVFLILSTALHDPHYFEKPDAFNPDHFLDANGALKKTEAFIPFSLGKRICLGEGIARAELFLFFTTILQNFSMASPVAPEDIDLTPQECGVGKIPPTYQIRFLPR
From the text: as §1

UGT1A6 = target: T3, UGT1A6 (Homo sapiens, UniProt P19224); assay: UGT inhibition in human liver microsomes, 1-naphthol β-D-glucuronidation (NPG); details: pH 7.4, probe 1-naphthol (200 μM)
T3 construct: The typical incubation mixture contained human liver microsomes (0.5 mg/mL) along with SKN (10 μM); tissue BD Gentest; host or cells: human liver microsomes
T3 sequence (P19224 27-532): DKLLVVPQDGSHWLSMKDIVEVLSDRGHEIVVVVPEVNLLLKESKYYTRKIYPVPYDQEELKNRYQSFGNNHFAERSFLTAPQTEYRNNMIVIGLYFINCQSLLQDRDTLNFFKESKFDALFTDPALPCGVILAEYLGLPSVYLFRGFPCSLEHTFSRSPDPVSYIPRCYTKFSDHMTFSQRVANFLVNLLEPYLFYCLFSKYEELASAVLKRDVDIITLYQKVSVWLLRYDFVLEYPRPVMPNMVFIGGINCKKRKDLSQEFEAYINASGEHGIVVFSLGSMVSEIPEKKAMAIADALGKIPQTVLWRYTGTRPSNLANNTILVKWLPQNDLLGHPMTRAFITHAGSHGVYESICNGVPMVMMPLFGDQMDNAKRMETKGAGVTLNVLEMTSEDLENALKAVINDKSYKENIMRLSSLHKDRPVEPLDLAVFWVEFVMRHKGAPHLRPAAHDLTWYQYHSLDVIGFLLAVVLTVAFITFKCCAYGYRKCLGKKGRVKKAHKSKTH
Experimental: as §2, §3

CYP2D6 = CYP2D6 (Homo sapiens, UniProt P10635); assay: CYP inhibition in human liver microsomes, dextromethorphan O-demethylation (DEXOD); details: pH 7.4, probe dextromethorphan (O-demethylation, DEXOD)
Chain of CYP2D6 (P10635 whole entry): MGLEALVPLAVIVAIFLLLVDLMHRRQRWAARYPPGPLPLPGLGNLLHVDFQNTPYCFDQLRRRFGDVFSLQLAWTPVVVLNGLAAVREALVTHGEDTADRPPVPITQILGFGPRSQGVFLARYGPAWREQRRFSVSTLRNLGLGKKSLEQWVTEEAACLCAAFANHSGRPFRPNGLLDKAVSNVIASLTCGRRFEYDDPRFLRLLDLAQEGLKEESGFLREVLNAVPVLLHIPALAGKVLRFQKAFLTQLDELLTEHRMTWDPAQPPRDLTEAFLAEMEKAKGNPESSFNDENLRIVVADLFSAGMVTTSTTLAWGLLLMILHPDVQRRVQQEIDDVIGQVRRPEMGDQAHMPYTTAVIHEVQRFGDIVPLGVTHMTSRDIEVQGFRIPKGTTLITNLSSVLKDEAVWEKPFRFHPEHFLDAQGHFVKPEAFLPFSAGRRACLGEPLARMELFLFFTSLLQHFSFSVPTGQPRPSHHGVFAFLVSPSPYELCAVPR
From the text: as §1

[1] = human liver microsomes, 200 µM, inhibitor 10 M [sic], human liver microsomes 0.5 mg/mL, read-out: Inhibition (%)
[2] = inhibitor 10 µM, human liver microsomes 0.5 mg/mL, read-out: Inhibition (%)
[3] = liver microsomes, 200 μM, SKN 10 μM, 15 min pre-incubation, read-out: % Inhibition in Pre-Incubation
[4] = liver microsomes, 200 μM, SKN 10 μM, human liver microsomes, read-out: % Inhibition in Co-Incubation
[5] = SKN 10 μM, 15 min pre-incubation, read-out: % Inhibition in Pre-Incubation
[6] = SKN 10 μM, read-out: % Inhibition in Co-Incubation

Compound `O=C1C[C@@H](c2ccc(O)c(O)c2)Oc2cc(O)cc(O)c21` [Eriodictyol, 3′-hydroxynaringenin] has an inhibition at 60 min, 10 µM (CYP3A4; [1]) of 3.2 ± 0.7%, an inhibition at 10 μM (UGT2B7; [2]) of 8.2 ± 1.4% and an inhibition at 60 min, 10 µM (CYP2B6; [1]) of 16.1 ± 0.9%. The inhibition at 10 μM (UGT1A6; [2]) was 1.9 ± 2.7% and the inhibition at 60 min, 10 µM (CYP2D6; [1]) was 5.6 ± 3.6%.
For `O=C1C[C@@H](c2ccc(O)cc2)Oc2cc(O)cc(O)c21` [Naringenin], the inhibition at 60 min, 10 µM (CYP3A4; [1]) was 39.6 ± 2.2%, the inhibition at 10 μM (UGT2B7; [2]) was 6 ± 2.2% and the inhibition at 60 min, 10 µM (CYP2B6; [1]) was 24 ± 2.2%. It also gave an inhibition at 10 μM (UGT1A6; [2]) of 4.1 ± 3.1% and an inhibition at 60 min, 10 µM (CYP2D6; [1]) of 11.9 ± 1.4%.
`COc1cc(O)c2c(c1)OC(c1ccc(O)cc1)CC2=O` (racemic) [SKN, (+/−) 7-O-methylnaringenin] showed an inhibition at 60 min, 10 µM (CYP3A4; [3]) of 12.6 ± 2.8%, an inhibition at 60 min, 10 µM (CYP3A4; [4]) of 15.6 ± 0.6% and an inhibition at 10 μM (UGT2B7; [5]) of 12.6 ± 2.8%. It also gave an inhibition at 10 μM (UGT2B7; [6]) of 15.6 ± 0.6%, an inhibition at 60 min, 10 µM (CYP2B6; [3]) of 0.8 ± 0.2% and an inhibition at 60 min, 10 µM (CYP2B6; [4]) of -0.6 ± 0.9%. For the same compound, the inhibition at 10 μM (UGT1A6; [5]) was 10.1 ± 1.2%, the inhibition at 10 μM (UGT1A6; [6]) was 2 ± 0.6% and the inhibition at 60 min, 10 µM (CYP2D6; [3]) was 3.5 ± 2.6%. For the same compound, the inhibition at 60 min, 10 µM (CYP2D6; [4]) was -0.6 ± 3.1%.
